Laboratory results as given in patent publication US6407116B1, “Nitrogenous fused-ring compounds, process for the preparation of the same, and drugs” (Takeda Chemical Industries, Inc., priority 1997, dated 2002).
Counter-ions that a name gives are not always drawn.

Tests used:
guinea-pig eosinophils = assay: Chemotaxis inhibition assay: LTB4-induced chemotaxis in guinea-pig eosinophils; format: cell-based; conditions: test substance 1×10^−5 M, LTB4 10^−8 M, 2 hours
Protocol: 1) Guinea-pig Eosinophil Preparation
Male Hartley guinea-pigs received 2 ml of equine serum (Bio-Whittaker, Inc) intraperitoneally once a week for successive 8 weeks. 48 hours after the last administration, 75 ml of physiological saline was injected into the peritoneal cavity, and the fluid was recovered and centrifuged at 400 G for 5 minutes. […] Erythrocytes in the isolated cell pellet, if any, were removed by hypotonic treatment (suspended in water for 30 seconds).
2) Chemotaxis Inhibition Assay
600 μl of LTB4 suspended in Hanks-Hepes-HSA (final concentration of 10^−8 M, Cascade Biochemical Ltd.) was placed in the lower compartment of a 24-well plate and kept at 37° C. for 30 minutes in a CO2 gas incubator. After mounting a Chemotaxicell (polycarbonate membrane, pore size 3 μm, thickness 10 μm), which served as an upper compartment, on the 24-well plate described above, 200 μl of eosinophil suspension (5×10^6 cells/ml), which had been incubated at 37° C. for 15 minutes in a thermostat chamber, was added to the upper compartment. After allowing to react for 2 hours in the CO2 gas incubator, the Chemotaxicell was removed, and 60 μl of 2% (w/v) EDTA solution in physiological saline was added to the lower compartment. After cooling on ice, the cells which underwent the chemotaxis into the lower compartment were counted using a blood cell counter (Coulter Counter (trade name)). In the procedure described above, the test substance was dissolved in N,N-dimethylformamide (DMF) and added to the upper and lower compartments at the final concentration of 10^−5 M.
% Chemotaxis inhibition=[…] [Equation 2]
The results are shown in [Table 2].

Structure (SMILES)	melting point [°C]	Inhibition (%) of LTB4-induced chemotaxis (guinea-pig eosinophils) [%]
Cl.O=c1[nH]c(=O)n(CCCCN2CCC(c3c[nH]c4ccccc34)CC2)c2ccccc12	250 to 252	
Cl.Cn1c(=O)c2ccccc2n(CCCN2CCC(OC(c3ccccc3)c3ccccc3)CC2)c1=O	127 to 128	
Cl.O=c1c2ccccc2n(CCCCN2CCC(OC(c3ccccc3)c3ccccc3)CC2)c(=O)n1C1CCCCC1	206 to 208	
Cl.O=c1[nH]c(=O)n(CCCCN2CCN(C(c3ccccc3)c3ccccc3)CC2)c2ccccc12	161 to 163	
Cl.O=c1[nH]c(=O)n(CCCCN2CCC(OC(c3ccccc3)c3ccccc3)CC2)c2ncccc12	121 to 123	
CS(=O)(=O)Nc1ccc2c(c1)c(=O)[nH]c(=O)n2CCCCN1CCC(OC(c2ccccc2)c2ccccc2)CC1.Cl	225 to 227	
COC(=O)C(C)(C)c1ccc2c(c1)c(=O)[nH]c(=O)n2CCCCN1CCC(OC(c2ccccc2)c2ccccc2)CC1.Cl	223 to 225	
COC(=O)C1(n2c(=O)c3ccccc3n(CCCCN3CCC(OC(c4ccccc4)c4ccccc4)CC3)c2=O)CCCC1.Cl	178 to 180	
O=c1[nH]c(=O)n(CCCN2CCC(OC(c3ccccc3)c3ccccc3)CC2)c2ccccc12 [Example 1, 2,4-Dioxo-1-[3-(4-diphenylmethoxy-1-piperidinyl)propyl]-1,2,3,4-tetrahydroquinazoline]	149 to 151	
O=c1[nH]c(=O)n(CCCCCN2CCC(OC(c3ccccc3)c3ccccc3)CC2)c2ccccc12 [Example 3, 2,4-Dioxo-1-[5-(4-diphenylmethoxy-1-piperidinyl)pentyl]-1,2,3,4-tetrahydroquinazoline]	173 to 174	
O=c1[nH]c(=O)n(CCCCN2CCC(OC(c3ccccc3)c3ccccc3)CC2)c2cc(Cl)ccc12 [Example 9, 7-Chloro-2,4-dioxo-1-[4-(4-diphenylmethoxypiperidino)butyl]-1,2,3,4-tetrahydroquinazoline]	169 to 171	
O=c1[nH]c(=O)n(CCCCN2CCC(OC(c3ccccc3)c3ccccc3)CC2)c2cc([N+](=O)[O-])ccc12 [Example 11, 2,4-Dioxo-1-[4-(4-diphenylmethoxypiperidino)butyl]-7-nitro-1,2,3,4-tetrahydroquinazoline]	214 to 215	
COC(=O)Cn1c(=O)c2ccccc2n(CCCN2CCC(OC(c3ccccc3)c3ccccc3)CC2)c1=O [Example 14, Methyl 2,4-dioxo-1-[3-(4-diphenylmethoxypiperidino)propyl]-1,2,3,4-tetrahydroquinazoline-3-acetate]	109 to 110	
COC(=O)Cn1c(=O)c2ccccc2n(CCCCN2CCC(OC(c3ccccc3)c3ccccc3)CC2)c1=O [Example 15, Methyl 2,4-dioxo-1-[4-(4-diphenylmethoxypiperidino)butyl]-1,2,3,4-tetrahydroquinazoline-3-acetate]	91 to 93	
Nc1ccc2c(=O)[nH]c(=O)n(CCCCN3CCC(OC(c4ccccc4)c4ccccc4)CC3)c2c1 [Example 39, 7-Amino-2,4-dioxo-1-[4-(4-diphenylmethoxypiperidino)butyl]-1,2,3,4-tetrahydroquinazoline]	162 to 164	
CC(=O)OCC(=O)Nc1ccc2c(c1)c(=O)[nH]c(=O)n2CCCCN1CCC(OC(c2ccccc2)c2ccccc2)CC1 [Example 46, 6-Acetoxyacetamide-2,4-dioxo-1-[4-(4-diphenylmethoxypiperidino)butyl]-1,2,3,4-tetrahydroquinazoline]		52
CN(CCc1ccccc1)C(=O)Cn1c(=O)c2ccccc2n(CCCCN2CCC(OC(c3ccccc3)c3ccccc3)CC2)c1=O.Cl [Example 56, 2,4-Dioxo-1-[4-(4-diphenylmethoxypiperidino)butyl]-N-methyl-N-(2-phenethyl)-1,2,3,4-tetrahydroquinazoline-3-acetamide hydrochloride]		73

Further lines, with some results ahead:

melting point [°C]	Structure (SMILES)	Inhibition (%) of LTB4-induced chemotaxis (guinea-pig eosinophils) [%]
119 to 121	N#CCCCCn1c(=O)c2ccccc2n(CCCCN2CCC(OC(c3ccccc3)c3ccccc3)CC2)c1=O (as salt: hydrochloride) [Example 93, 2,4-Dioxo-1-[4-(4-diphenylmethoxypiperidino)butyl]-1,2,3,4-tetrahydroquinazoline-3-valeronitrile]	
165 to 167	CN(C)c1ccc2c(c1)c(=O)[nH]c(=O)n2CCCCN1CCC(OC(c2ccccc2)c2ccccc2)CC1 [Example 42, 6-Dimethylamino-2,4-dioxo-1-[4-(4-diphenylmethoxypiperidino)butyl]-1,2,3,4-tetrahydroquinazoline]	
166 to 168	O=C(O)CC(=O)Nc1ccc2c(c1)c(=O)[nH]c(=O)n2CCCCN1CCC(OC(c2ccccc2)c2ccccc2)CC1 [Example 48, [2,4-Dioxo-1-[4-(4-diphenylmethoxypiperidino)butyl]-1,2,3,4-tetrahydro-6-quinazolinyl]carbamoylacetic acid]	
170 to 172	O=C(O)Cn1c(=O)c2ccccc2n(CCCN2CCC(OC(c3ccccc3)c3ccccc3)CC2)c1=O [Example 49, 2,4-Dioxo-1-[3-(4-diphenylmethoxypiperidino)propyl]-1,2,3,4-tetrahydroquinazoline-3-acetic acid]	
184 to 186	O=C(O)Cn1c(=O)c2ccccc2n(CCCCN2CCC(OC(c3ccccc3)c3ccccc3)CC2)c1=O [Example 50, 2,4-Dioxo-1-[4-(4-diphenylmethoxypiperidino)butyl]-1,2,3,4-tetrahydroquinazoline-3-acetic acid]	
150 to 151	O=C(O)CCn1c(=O)c2ccccc2n(CCCN2CCC(OC(c3ccccc3)c3ccccc3)CC2)c1=O [Example 51, 2,4-Dioxo-1-[3-(4-diphenylmethoxypiperidino)propyl]-1,2,3,4-tetrahydroquinazoline-3-propionic acid]	
153 to 155	O=C(O)Cn1c(=O)n(CCCCN2CCC(OC(c3ccccc3)c3ccccc3)CC2)c(=O)c2ccccc21 [Example 72, 2,4-Dioxo-3-[4-(4-diphenylmethoxypiperidino)butyl]-1,2,3,4-tetrahydroquinazoline-1-acetic acid]	
237 to 238	O=C(O)CCn1c(=O)n(CCCN2CCC(OC(c3ccccc3)c3ccccc3)CC2)c(=O)c2ccccc21 [Example 75, 2,4-Dioxo-3-[3-(4-diphenylmethoxypiperidino)propyl]-1,2,3,4-tetrahydroquinazoline-1-propionic acid]	
110 to 112	O=C(O)CCn1c(=O)n(CCCCN2CCC(OC(c3ccccc3)c3ccccc3)CC2)c(=O)c2ccccc21 [Example 76, 2,4-Dioxo-3-[4-(4-diphenylmethoxypiperidino)butyl]-1,2,3,4-tetrahydroquinazoline-1-propionic acid]	
227 to 229	O=C(O)CCCn1c(=O)n(CCCCN2CCC(OC(c3ccccc3)c3ccccc3)CC2)c(=O)c2ccccc21 [Example 78, 2,4-Dioxo-3-[4-(4-diphenylmethoxypiperidino)butyl]-1,2,3,4-tetrahydroquinazoline-1-butyric acid]	
173 to 175	O=c1[nH]c2ccccc2c(=O)n1CCCN1CCC(OC(c2ccccc2)c2ccccc2)CC1 [Example 79, 2,4-Dioxo-3-[3-(4-diphenylmethoxypiperidino)propyl]-1,2,3,4-tetrahydroquinazoline]	
140 to 142	O=c1[nH]c2ccccc2c(=O)n1CCCCN1CCC(OC(c2ccccc2)c2ccccc2)CC1 [Example 80, 2,4-Dioxo-3-[4-(4-diphenylmethoxypiperidino)butyl]-1,2,3,4-tetrahydroquinazoline]	
192 to 194	COC(=O)c1ccc2c(=O)[nH]c(=O)n(CCCCN3CCC(OC(c4ccccc4)c4ccccc4)CC3)c2c1 [Example 85, Methyl 2,4-dioxo-1-[4-(4-diphenylmethoxypiperidino)butyl]-1,2,3,4-tetrahydroquinazoline-7-carboxylate]	
161 to 163	O=C(O)c1ccc2c(c1)c(=O)[nH]c(=O)n2CCCCN1CCC(OC(c2ccccc2)c2ccccc2)CC1 [Example 89, 2,4-Dioxo-1-[4-(4-diphenylmethoxypiperidino)butyl]-1,2,3,4-tetrahydroquinazoline-6-carboxylic acid]	
177 to 179	O=C(O)c1ccc2c(=O)[nH]c(=O)n(CCCCN3CCC(OC(c4ccccc4)c4ccccc4)CC3)c2c1 [Example 90, 2,4-Dioxo-1-[4-(4-diphenylmethoxypiperidino)butyl]-1,2,3,4-tetrahydroquinazoline-7-carboxylic acid]	
106 to 107	N#Cn1c(=O)c2ccccc2n(CCCCN2CCC(OC(c3ccccc3)c3ccccc3)CC2)c1=O [Example 92, 2,4-Dioxo-1-[4-(4-diphenylmethoxypiperidino)butyl]-1,2,3,4-tetrahydroquinazoline-3-carbonitrile]	
234 to 236	O=C(O)CCCCn1c(=O)c2cc(O)ccc2n(CCCCN2CCC(OC(c3ccccc3)c3ccccc3)CC2)c1=O [Example 105, 2,4-Dioxo-1-[4-(4-diphenylmethoxypiperidino)butyl]-6-hydroxy-1,2,3,4-tetrahydroquinazoline-3-valeric acid]	
